Experimental data published in patent US20050120403A1, “Inhibition of generative propagation in genetically modified herbicide resistant grasses” (Advanta Seeds B. V., priority 2000, published 2005).
Marks after values point to notes of the source that are not given here.

Legend:
[1] = system: Arabidopsis and tobacco overexpressing AtH1; details: exogenous application; AtH1 overexpression in dicots; cited from earlier work
[2] = system: Lolium perenne L. (perennial ryegrass) AtH1-expressing transformants; assay: Relief of delayed heading by gibberellins (spraying, Long Day conditions); type: in vivo; details: for Mean Heading Time: transformant (T) plants, 30 mg/L in 5% ethanol + 0.01% Tween-20, sprayed six times over two weeks, days after the first spraying; for effect on heading as compared to non-treated controls: transformant plants, gibberellin 30 mg/L spray
Excerpt: Primary transformants derived from Lolium perenne L. (perennial ryegrass) using pVDH636 were vernalized and then subjected to Long Day (LD) conditions in the greenhouse (17 hr light/7 hr dark). […] AtH1-expressing plants are generally very leafy (FIG. 10).
Four different gibberellin compounds, which differ in their florigenicity (Evans et al., 1990), were used to treat 34 clones per compound and their effect on heading time of transformants and controls was observed. Gibberellin was applied in solvent (5% ethanol supplemented with 0.01% Tween-20 surfactant) at 30 mg/L. It was applied by spraying six times with about 2-3 ml per plant over two weeks, started one week after the beginning of LD conditions. Mean heading time is shown in days after the first spraying. Non-transformant controls were treated with the solvent only.
Transformant (T) and non-transformant (NT) control plants (Table 5) were treated with the indicated gibberellin. […] Variation between transformants for their sensitivity to gibberellins could be great.

Molecule	reversal of inhibited flowering phenotype [1]	Mean Heading Time [2]	effect on heading as compared to non-treated controls [2]
C=C1C[C@]23C[C@@]1(O)CC[C@H]2[C@@]12C=C[C@H](O)[C@@](C)(C(=O)O1)[C@H]2[C@@H]3C(=O)O [GA3, gibberellic acid]	can be reversed	34.1 ^ab days	
16,17-dihydro-GA5 [diHGA5]		34.2 ^ab days	
C=C1C[C@]23C[C@@]1(O)CC[C@H]2[C@@]12CC=C[C@@](C)(C(=O)O1)[C@H]2[C@@H]3C(=O)O [GA5]		33.5 ^a days	significantly stimulated heading
C=C1C[C@]23C[C@@]1(O)CC[C@H]2[C@@]12CCC[C@@](C)(C(=O)O1)[C@H]2[C@@H]3C(=O)O [GA20]		37.8 ^b days	somewhat delayed heading
